Laboratory results reported in patent publication US8816102B2, “Compounds” (Givaudan S.A., priority 2009, dated 2014).

Key:
Parameters in all cases: species or system human
[1] = Sensory panel tasting of 0.3% NaCl solution with and without compound; settings: 0.3% NaCl and 10 ppm compound; reference solution A (0.3% NaCl): salty; trained panel of 20 women
Experimental: (§1) Two solutions were prepared:
A a solution of 0.3% NaCl
B a solution of 0.3% NaCl and 10 ppm Example 1 compound
(§2) The samples were tasted by a trained sensory panel composed of 20 women aged between 30 and 60.
B a solution of 0.3% NaCl and 10 ppm Example 5 compound.

[2] = Use in tomato soup, tasted by flavourists; settings: tomato soup containing 10 ppm compound; 4 flavourists
Experimental: A tomato soup mix was prepared from 9.4 g of sodium chloride, 1 g of mono sodium glutamate, 0.08 g ribonucleotides (ex yeast), 32 g of tomato powder (ex Spreda), 25.1 g of glucose, 21 g of starch (Ultrasperse 5 ex National Starch), 5 g of palm fat powder, 3 g of yeast powder, 1 g on onion powder, 0.15 g of carrot powder, 0.05 g of ground white pepper, 0.3 g celery extract powder, 0.05 g of ground laurel leaf powder, and 1.85 g of sucrose. 25 G of the well mixed ingredients was added to 250 g of boiling water and stirred until completely dissolved.
The reference soup was compared with a batch of the same soup containing 10 ppm of N-(2-hydroxyethyl)-2-(benzo[1,3]dioxol-5-yl)-2-oxoacetamide as prepared in example 2.

[3] = Use in potato chips, tasted by trained sensory panel
Experimental: Plain potato chips were prepared.
One part was flavoured with 1.2% sodium chloride (sample A)
One part was flavoured with 1.2% sodium chloride and 0.3% MSG (sample b)
One part was flavoured with 1.2% sodium chloride and 2.5 ppm N-(4-heptyl)-2-(benzo[1,3]dioxol-5-yl)-2-oxo-acetamide as prepared in example 3 (sample C).
as §2

[4] = Use in tomato ketchup, tasted by flavourists; settings: 4 flavourists
Experimental: A tomato ketchup was prepared from 19% tomato paste (28-30% dry weight), 8% of vinegar (15%), 3% of sodium chloride, 20% of sugar and 50% of water.
To one half of the batch was added 2 ppm of N-(4-heptyl) 2-(4-hydroxy-3-methyxophenol)-2-oxoacetamide (Example 5)
A batch of tomato ketchup was prepared as described in Example 12. To one half of the batch was added 20 ppm N-(4-hepthyl) 4-hydroxy-3-methoxy-mandelic amide as prepared in Example 7.

[5] = Sensory panel tasting of 0.3% NaCl and 0.03% MSG solution with and without compound; settings: 0.3% NaCl, reference solution A: salty, umami, trained panel of 20 women
Experimental: as §1
A a solution of 0.3% NaCl and 0.03% MSG
B a solution of 0.3% NaCl and 0.03% MSG and 10 ppm Example 6 compound.
as §2
A a solution of 0.3% NaCl, 0.03% MSG
B a solution of 0.3% NaCl, 0.03% MSG and 10 ppm N-heptyl-2-oxo-3-phenylpropionamide as prepared in example 9.
B a solution of 0.3% NaCl, 0.03% MSG and 1 ppm N-(4-heptyl)-2-oxo-3-phenylpropionamide as prepared in example 10.
B a solution of 0.3% NaCl, 0.03% MSG and 1 ppm N-heptyl 3-methoxy-4-hydroxy-mandelic acid as prepared in Example 8.

## O=C(NCCO)C(=O)c1ccccc1 [Example 1, N-(2-hydroxyethyl)-2-oxo-2-phenylacetamide]
[1]
  taste description of solution B: more salty, salivating

## O=C(NCCO)C(=O)c1ccc2c(c1)OCO2 [Example 2, 2-(benzo[d][1.3]dioxol-5-yl)-N-(2-hydroxyethyl)-2-oxoacetamide]
[2]
  taste of test soup compared with base soup: more umami, was more lingering and was more complex

## CCCC(CCC)NC(=O)C(=O)c1ccc2c(c1)OCO2 [Example 3, 2-(benzo[d][1,3]dioxol-5-yl)-N-(heptan-4-yl)-2-oxoacetamide]
[3]; 1.2% sodium chloride and 2.5 ppm compound, sample A (1.2% sodium chloride): salty
  taste description of potato chips sample C: salty, umami, long lasting, savoury, bouillon
[3]; sample C (1.2% sodium chloride and 2.5 ppm compound) versus samples A and B
  panel preference: preferred over the other two samples
[3]; sample C, 1.2% sodium chloride and 2.5 ppm compound
  off-note observed: slight bitter off-note

## CCCCCCCNC(=O)C(=O)c1ccc(O)c(OC)c1 [Example 5, N-heptyl-2-(4-hydroxy-3-methoxyphenyl)-2-oxoacetamide]
[4]; tomato ketchup with 2 ppm compound
  taste of test ketchup compared with base ketchup: clearly more umami, more sweet and more full/complex
[1]
  taste description of solution B: more salty, salivating, lingering

## CC(=O)C(=O)NCCO [Example 6, N-(2-hydroxyethyl)-2-oxopropanamide]
[5]; 0.03% MSG and 10 ppm compound
  taste description of solution B: more salty, more umami

## CCCC(CCC)NC(=O)C(O)c1ccc(O)c(OC)c1 (stereo not shown) [Example 7, N-(heptan-4-yl)-2-hydroxy-2-(4-hydroxy-3-methoxyphenyl)acetamide]
[4]; tomato ketchup with 20 ppm compound
  taste of test ketchup compared with base ketchup: more umami, more bouillon-like and more full/complex

## CCCCCCCNC(=O)C(O)c1ccc(O)c(OC)c1 (stereo not shown) [Example 8, N-heptyl-2-hydroxy-2-(4-hydroxy-3-methoxyphenyl)acetamide]
[5]; 0.03% MSG and 1 ppm compound
  taste description of solution B: salty, more umami, slightly pungent

## CCCCCCCNC(=O)C(=O)Cc1ccccc1 [Example 9, N-heptyl-2-oxo-3-phenylpropanamide]
[5]; 0.03% MSG and 10 ppm compound
  taste description of solution B: salty, stronger umami, more bouillon-like

## CCCC(CCC)NC(=O)C(=O)Cc1ccccc1 [Example 10, N-(heptan-4-yl)-2-oxo-3-phenylpropanamide]
[5]; 0.03% MSG and 1 ppm compound
  taste description of solution B: salty, more umami, more bouillon-like, slightly tingling

## N[C@@H](CCC(=O)O)C(=O)[O-].[Na+] [MSG, monosodium glutamate, reference compound]
[3]; 1.2% sodium chloride and 0.3% MSG
  taste description of potato chips sample B: salty and umami
